Laboratory results: patent US20260274814A1, “THIENYL COMPOUNDS FOR THE TREATMENT OF A CENTRAL NERVOUS SYSTEM DISEASE OR DISORDER” (Coreterra Therapeutics, Inc., priority 2023, published 2026)
Counter-ions that a name gives are not always drawn. Like-named read-outs stand apart in the source and are kept apart here.

Tested on: mice
Experiment: Neuropharmacological Assay (SmartCube): automated behavioral signature of compound-treated mice compared with a database of reference drug classes
Format: in vivo
Details: for minimal effective dose: Mus musculus, ip; for minimal effective dose / MED / MED (minimal effective dose): i.p., that dose is shown
Outline: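 Mice dosed i.p. 15 min before SmartCube testing, with compound in N-methyl-2-pyrrolidone/polyethylene glycol/propylene glycol. Video-captured behaviour is compared with a reference-drug signature database to give per-class probabilities, reported at 3.0 mg/kg. MED, from doses usually 0.3–10 mg/kg, is the lowest dose giving ≥45% total activity.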

[1] = dose having 45% or more total activity in SmartCube, if only one dose was tested, read-out: MED (minimal effective dose)
[2] = probability that activity matches this class of agents, 3.0 mg/kg i.p., 15 min before test
[3] = probability that activity matches this class of agents, 3.0 mg/kg i.p., 15 min before test, hydrochloride, 3 mg/kg
[4] = SmartCube class probability, 3.0 mg/kg i.p., 15 min before test
[5] = SmartCube class probability, 3.0 mg/kg i.p., 15 min before test, hydrochloride, 3 mg/kg
[6] = minimal effective dose: dose having 45% or more total activity in SmartCube, if only one dose tested, hydrochloride
[7] = SmartCube probability class, 3.0 mg/kg dose, i.p. 15 min before the behavioral test
[8] = SmartCube probability class, 3.0 mg/kg dose, i.p. 15 min before the behavioral test, hydrochloride, 3 mg/kg
[9] = dose having 45% or more total activity in SmartCube, if only one dose was tested, hydrochloride
[10] = minimal effective dose: dose having 45% or more total activity in SmartCube, if only one dose tested, read-out: MED
[11] = probability that activity matches this class of agents, 3.0 mg/kg i.p., 15 min before test, 3 mg/kg

CCc1sc(CC)c2c1CCC(NC)C2 (single isomer, unassigned) [Compound 117, 1,3-diethyl-N-methyl-4,5,6,7-tetrahydro-2-benzothiophen-5-amine hydrochloride]
ND (^ <4%): AD [2] | AG [2] | AN [2] | AP [2] | AX [2] | CE [2] | HL [2] | MS [2] | PS [2] | SH [2] | UK [3]
> 3 mg/kg: minimal effective dose [1]

CNC1(C)CCc2c(C(F)(F)F)csc2C1.Cl (single isomer, unassigned) [Compound 262, N, 6-dimethyl-3-(trifluoromethyl)-5,7-dihydro-4H-benzothiophen-6-amine hydrochloride]
++ (≥24%): AD [5]
ND (^ <4%): AG [4] | AN [4] | AP [4] | AX [4] | CE [4] | HL [4] | MS [4] | PS [4] | SH [4] | UK [5]
>3 mpk: MED [6]

CCc1csc2c1CC(N)CC2 (single isomer, unassigned) [Compound 280, 3-ethyl-4,5,6,7-tetrahydrobenzothiophen-5-amine hydrochloride]
+++ (≥49%): UK [8]
ND (^ <4%): AD [7] | AG [7] | AN [7] | AP [7] | AX [7] | CE [7] | HL [7] | MS [7] | PS [7] | SH [7]
3 mpk: MED (minimal effective dose: dose having 45% or more total activity in SmartCube, if only one dose was tested)

CNC1CCc2c(F)csc2C1 (single isomer, unassigned) [Compound 83, 3-fluoro-N-methyl-4,5,6,7-tetrahydrobenzothiophen-6-amine hydrochloride]
1 mpk: MED (minimal effective dose) [9]
ND (^ <4%): AG [2] | AN [2] | HL [2] | MS [2] | PS [2] | UK [2] | AD [3] | SH [3]
+ (≥4%): AX [3] | CE [3]
+++ (≥49%): AP [3]

CNC1Cc2scc(C(F)(F)F)c2C1 (single isomer, unassigned) [Compound 315, N-methyl-3-(trifluoromethyl)-5,6-dihydro-4H-cyclopenta[b]thiophen-5-amine hydrochloride]
ND (^ <4%): AD [7] | AG [7] | AN [7] | CE [7] | HL [7] | MS [7] | PS [7] | SH [7] | UK [8]
3 mpk: MED (minimal effective dose: dose having 45% or more total activity in SmartCube, if only one dose was tested, hydrochloride)
+ (≥4%): AP [8]
++++ (≥74%): AX [8]

CNC1CCc2sc(C(F)(F)F)cc2C1 (stereo not drawn) [Compound 173, N-methyl-2-(trifluoromethyl)-4,5,6,7-tetrahydrobenzothiophen-5-amine hydrochloride]
> 3 mg/kg: minimal effective dose [10]
++ (≥24%): UK [4]
ND (^ <4%): AD [4] | AG [4] | AN [4] | AP [4] | AX [4] | CE [4] | HL [4] | MS [4] | PS [4] | SH [4]

CNC1CCc2sc(-c3ccccc3)cc2C1.Cl (single isomer, unassigned) [Compound 256, N-methyl-2-phenyl-4,5,6,7-tetrahydrobenzothiophen-5-amine hydrochloride]
> 3 mg/kg: minimal effective dose [10]
ND (^ <4%): AD [4] | AG [4] | AN [4] | AP [4] | AX [4] | CE [4] | HL [4] | MS [4] | PS [4] | SH [4]
+ (≥4%): UK [5]

CNC1CCc2scc(C3CCC3)c2C1 (single isomer, unassigned) [Compound 268, 3-cyclobutyl-N-methyl-4,5,6,7-tetrahydrobenzothiophen-5-amine hydrochloride]
ND (^ <4%): AD [4] | AG [4] | AN [4] | AP [4] | AX [4] | CE [4] | HL [4] | MS [4] | PS [4] | SH [4] | UK [5]
>3 mpk: MED (minimal effective dose: dose having 45% or more total activity in SmartCube, if only one dose tested)

CNC1CCc2cc(C(F)(F)F)sc2C1 (single isomer, unassigned) [Compound 38, N-methyl-2-(trifluoromethyl)-4,5,6,7-tetrahydrobenzothiophen-6-amine]
ND (^ <4%): AG [2] | AN [2] | AX [2] | CE [2] | HL [2] | MS [2] | PS [2] | SH [2] | AD [11] | AP [11]
3 mg/kg: minimal effective dose [1]
++ (≥24%): UK [11]

Cc1scc2c1CC(N)CC2 (single isomer, unassigned) [Compound 163, 3-methyl-4,5,6,7-tetrahydro-2-benzothiophen-5-amine hydrochloride]
+ (≥4%): UK [4]
>3 mpk: MED [6]
ND (^ <4%): AD [4] | AG [4] | AN [4] | AP [4] | CE [4] | HL [4] | MS [4] | PS [4] | SH [4] | AX [5]

CN(C)C1(C)CCc2ccsc2C1 (single isomer, unassigned) [Compound 119, N, N, 6-trimethyl-5,7-dihydro-4H-benzothiophen-6-amine hydrochloride]
++++ (≥74%): AX [2]
ND (^ <4%): AD [2] | AG [2] | AN [2] | AP [2] | CE [2] | HL [2] | MS [2] | PS [2] | SH [2] | UK [2]
3 mg/kg: minimal effective dose [1]

CNC1CCc2c(Cl)csc2C1 (single isomer, unassigned) [Compound 198, 3-chloro-N-methyl-4,5,6,7-tetrahydrobenzothiophen-6-amine hydrochloride]
ND (^ <4%): AD [4] | AG [4] | AN [4] | AX [4] | CE [4] | MS [4] | PS [4] | SH [4] | UK [4] | HL [5]
< 3 mg/kg: minimal effective dose [10]
++++ (≥74%): AP [5]

Cl.FC1(F)CC(NC2CCc3cscc3C2)C1 (single isomer, unassigned) [Compound 127, N-(3,3-difluorocyclobutyl)-4,5,6,7-tetrahydro-2-benzothiophen-5-amine hydrochloride]
30 mpk: MED (minimal effective dose) [9]
ND (^ <4%): AD [2] | AG [2] | AN [2] | AP [2] | AX [2] | CE [2] | HL [2] | MS [2] | PS [2] | SH [2] | UK [2]

CNC1CCc2sc(Cl)cc2C1 (stereo not drawn) [Compound 97, 2-chloro-N-methyl-4,5,6,7-tetrahydrobenzothiophen-5-amine hydrochloride]
1 mg/kg: minimal effective dose [1]
ND (^ <4%): AG [2] | AN [2] | AP [2] | AX [2] | CE [2] | HL [2] | MS [2] | PS [2] | SH [2] | UK [2]
++++ (≥74%): AD [2]

CNC1(C)CCc2c(F)csc2C1 (stereo not drawn) [Compound 109, 3-fluoro-N, 6-dimethyl-5,7-dihydro-4H-benzothiophen-6-amine hydrochloride]
++++ (≥74%): AD [2]
ND (^ <4%): AG [2] | AN [2] | AP [2] | AX [2] | CE [2] | HL [2] | MS [2] | PS [2] | SH [2] | UK [2]
< 3 mg/kg: minimal effective dose [1]
